The target of assay [1] is T1, human CSNK1D (Homo sapiens, UniProt P48730).
T1 construct: expressed in transfected cells
The experiment in a line: Whole Cell nBRET CSNK1D Binding Assay. The settings on record: living CHO cells stably expressing human CSNK1D tagged with nanoluciferase; NanoBret tracer 130 nM; 2 hours at 37 C.

The target in assay [2] is T2, human recombinant GST cleaved CSNK1D (Homo sapiens, UniProt P48730).
T2 construct: GST (cleaved yes); purchased University of Dundee clone DU 19064
The experiment in a line: Purified Enzyme Assay (ADP-Glo CSNK1D Kinase Assay). The assay is classed as biochemical. To be noted: 2 nM CSNK1D; peptide substrate 150 μM; ATP 20 μM; 45 minutes at room temperature. An outline of the steps: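 Percent activity derived from ADP-Glo quantification of ADP produced. Reactions: compound dose-response with human recombinant GST-cleaved CSNK1D, ATP and substrate peptide PLSRTL-pS-VASLPGL, incubated 45 min at room temperature.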

T1 sequence (P48730 whole entry): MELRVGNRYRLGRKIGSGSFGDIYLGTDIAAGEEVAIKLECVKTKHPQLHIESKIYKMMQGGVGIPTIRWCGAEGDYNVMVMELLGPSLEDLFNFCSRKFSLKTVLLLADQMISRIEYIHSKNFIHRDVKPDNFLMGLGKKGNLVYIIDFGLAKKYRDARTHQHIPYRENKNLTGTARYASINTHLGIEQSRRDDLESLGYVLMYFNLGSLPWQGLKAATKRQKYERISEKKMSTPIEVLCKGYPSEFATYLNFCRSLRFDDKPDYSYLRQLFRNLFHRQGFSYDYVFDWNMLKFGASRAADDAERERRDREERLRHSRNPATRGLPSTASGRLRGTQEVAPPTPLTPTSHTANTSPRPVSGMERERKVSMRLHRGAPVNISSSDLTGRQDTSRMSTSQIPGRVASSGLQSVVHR
T2 sequence (P48730 whole entry): as above

As a reminder, the IC50 is the concentration that inhibits the measured activity by half. For `Fc1ccc(-c2nn3c(c2-c2ccncc2)OCCC3)cc1` [Example 438, 2-(4-Fluorophenyl)-3-(4-pyridyl)-6,7-dihydro-5H-pyrazolo[5,1-b][1,3]oxazine], the IC50 in assay [1] was 113 nM; in assay [2], 12 nM.
On the same counts, the results for `C[C@@]1(CF)CCc2c(-c3ccnc4[nH]ncc34)c(-c3ccc(F)cn3)nn2C1` (single isomer, unassigned) [Example 52, (*R)-4-[6-(Fluoromethyl)-2-(5-fluoro-2-pyridyl)-6-methyl-5,7-dihydro-4H-pyrazolo[1,5-a]pyridin-3-yl]-1H-pyrazolo[3,4-b]pyridine] are 11 nM and 1 nM.
On the same counts, the results for `Cc1nc2[nH]nc(C)c2c(-c2c(-c3ccc(F)cn3)nn3c2CC[C@]2(C3)CC2(F)F)c1F` (single isomer, unassigned) [Example 334, (*R)-2,2-Difluoro-3′-(5-fluoro-3,6-dimethyl-1H-pyrazolo[3,4-b]pyridin-4-yl)-2′-(5-fluoropyridin-2-yl)-4′,5′-dihydro-7′H-spiro[cyclopropane-1,6′-pyrazolo[1,5-a]pyridine]] are 1550 nM and 70 nM.
On the same counts, the results for `CC(=O)Nc1cc(-c2c(-c3ccc(F)cc3)nn3c2C[C@H](F)C3)ccn1` [Example 229, N-[4-[(5S)-5-Fluoro-2-(4-fluorophenyl)-5,6-dihydro-4H-pyrrolo[1,2-b]pyrazol-3-yl]-2-pyridyl]acetamide] are 2 nM and 1 nM.
For the compound `CC1(C)Cn2nc(-c3ccc(F)cn3)c(-c3ccn4nccc4c3)c2O1` [Example 367, 6-(5-Fluoro-2-pyridyl)-2,2-dimethyl-7-pyrazolo[1,5-a]pyridin-5-yl-3H-pyrazolo[5,1-b]oxazole], the half-inhibitory concentration (IC50) worked out at 566 nM in assay [1] and 41 nM in assay [2].
Consider `Fc1cncc(-c2nn3c(c2-c2ccnc4[nH]ncc24)COCC3)c1` [Example 76, 2-(5-Fluoro-3-pyridyl)-3-(1H-pyrazolo[3,4-b]pyridin-4-yl)-6,7-dihydro-4H-pyrazolo[5,1-c][1,4]oxazine], for which the IC50 in assay [1] was 2930 nM; in assay [2] it was 168 nM.
As for `CC(C)[C@H]1Cn2nc(-c3ccc(F)cn3)c(-c3ccnc4[nH]ncc34)c2CO1` (single isomer, unassigned) [Example 98, (*S)-2-(5-Fluoropyridin-2-yl)-6-isopropyl-3-(1H-pyrazolo[3,4-b]pyridin-4-yl)-6,7-dihydro-4H-pyrazolo[5,1-c][1,4]oxazine], the IC50 in assay [1] was found to be 2280 nM; in assay [2], 31 nM.
For `CC1(C)Cn2nc(-c3ccc(F)cn3)c(-c3ccnc(NC(=O)C4CC4(F)F)c3)c2CO1` (stereo not drawn) [Example 135, 2,2-Difluoro-N-(4-(2-(5-fluoropyridin-2-yl)-6,6-dimethyl-6,7-dihydro-4H-pyrazolo[5,1-c][1,4]oxazin-3-yl)pyridin-2-yl)cyclopropane-1-carboxamide] the same measures were 6 nM and 3 nM.
Consider `Fc1ccc(-c2nn3c(c2-c2ccnc4cn[nH]c24)OCC(F)(F)C3)cc1` [Example 468, 6,6-Difluoro-2-(4-fluorophenyl)-3-(1H-pyrazolo[4,3-b]pyridin-7-yl)-5,7-dihydropyrazolo[5,1-b][1,3]oxazine], for which the half-inhibitory concentration (IC50) in assay [1] was 187 nM; in assay [2], 25 nM.
On the same counts, the results for `Cc1cc(-c2c(-c3ccc(F)cc3)nn3c2CO[C@H](C)C3)c2cn[nH]c2n1` (single isomer, unassigned) [Example 84, (*R)-2-(4-Fluorophenyl)-6-methyl-3-(6-methyl-1H-pyrazolo[3,4-b]pyridin-4-yl)-6,7-dihydro-4H-pyrazolo[5,1-c][1,4]oxazine] are 25 nM and 1 nM.
For `Cc1cc(-c2c(-c3ccc(F)cc3)nn3c2CC[C@H]3C)c2cn[nH]c2n1` [Example 18, 4-[(6R)-2-(4-Fluorophenyl)-6-methyl-5,6-dihydro-4H-pyrrolo[1,2-b]pyrazol-3-yl]-6-methyl-1H-pyrazolo[3,4-b]pyridine] the same measures were 19 nM and 2 nM.
On the same counts, the results for `Fc1ccc(-c2nn3c(c2-c2ccnc4[nH]nc(Cl)c24)CC2(C3)CC2(F)F)nc1` (single isomer, unassigned) [Example 257, (*R)-3-(3-Chloro-1H-pyrazolo[3,4-b]pyridin-4-yl)-1′,1′-difluoro-2-(5-fluoro-2-pyridyl)spiro[4,6-dihydropyrrolo[1,2-b]pyrazole-5,2′-cyclopropane]] are 10800 nM and 197 nM.
Turning to `Fc1ccc(-c2nn3c(c2-c2c(F)cnc4[nH]ncc24)C[C@H](F)C3)cc1` [Example 227, 5-Fluoro-4-[(5S)-5-fluoro-2-(4-fluorophenyl)-5,6-dihydro-4H-pyrrolo[1,2-b]pyrazol-3-yl]-1H-pyrazolo[3,4-b]pyridine], the concentration for half-maximal inhibition (IC50) in assay [1] came out at 3 nM; in assay [2], 1 nM.
`Cc1nc2cc(-c3c(-c4ccc(F)cn4)nn4c3COC(C)(C)C4)ccn2n1` [Example 386, 2-(5-Fluoropyridin-2-yl)-6,6-dimethyl-3-(2-methyl-[1,2,4]triazolo[1,5-a]pyridin-7-yl)-6,7-dihydro-4H-pyrazolo[5,1-c][1,4]oxazine]: the results for the concentration for half-maximal inhibition (IC50) in assay [1] and in assay [2] were 9660 nM and 162 nM, respectively.
For `Fc1ccc(-c2nn3c(c2-c2c(F)cnc4[nH]ncc24)OCC2(CC2)C3)nc1` [Example 459, 3′-(5-Fluoro-1H-pyrazolo[3,4-b]pyridin-4-yl)-2′-(5-fluoropyridin-2-yl)-5′H,7′H-spiro[cyclopropane-1,6′-pyrazolo[5,1-b][1,3]oxazine]] the same measures were 80 nM and 4 nM.
On the same counts, the results for `Cc1cc(-c2c(-c3ccc(F)cc3)nn3c2C[C@H](F)C3)c2cn[nH]c2n1` [Example 12, (S)-4-(5-Fluoro-2-(4-fluorophenyl)-5,6-dihydro-4H-pyrrolo[1,2-b]pyrazol-3-yl)-6-methyl-1H-pyrazolo[3,4-b]pyridine] are 2 nM and 1 nM.
For `Fc1ccc(-c2nn3c(c2-c2ccnc4[nH]ncc24)CC(F)(F)CC3)nc1` [Example 48, 4-[5,5-Difluoro-2-(5-fluoro-2-pyridyl)-6,7-dihydro-4H-pyrazolo[1,5-a]pyridin-3-yl]-1H-pyrazolo[3,4-b]pyridine] the same measures were 924 nM and 40 nM.
Regarding `Fc1cnc(-c2nn3c(c2-c2ccnc4[nH]ncc24)CCCC3)c(F)c1` [Example 38, 4-[2-(3,5-Difluoro-2-pyridyl)-4,5,6,7-tetrahydropyrazolo[1,5-a]pyridin-3-yl]-1H-pyrazolo[3,4-b]pyridine], the figures for the IC50 in assay [1] and in assay [2] were 238 nM and 14 nM, respectively.
For `Fc1ccc(-c2nn3c(c2-c2ccnc4[nH]ncc24)OCCC3)nc1` [Example 186, 2-(5-Fluoropyridin-2-yl)-3-(1H-pyrazolo[3,4-b]pyridin-4-yl)-6,7-dihydro-5H-pyrazolo[5,1-b][1,3]oxazine], the IC50 in assay [1] worked out at 257 nM; in assay [2], 9 nM.
In the case of `Cc1cc(-c2c(-c3ccc(F)cn3)nn3c2CCCC3)c2cn[nH]c2n1` [Example 36, 4-[2-(5-Fluoro-2-pyridyl)-4,5,6,7-tetrahydropyrazolo[1,5-a]pyridin-3-yl]-6-methyl-1H-pyrazolo[3,4-b]pyridine], the IC50 was determined as 133 nM in assay [1] and 6 nM in assay [2].
With `CC1(C)Cn2nc(-c3ccc(F)cn3)c(-c3ccnc(NC(=O)c4ccccc4)c3)c2CO1` [Example 136, N-(4-(2-(5-Fluoropyridin-2-yl)-6,6-dimethyl-6,7-dihydro-4H-pyrazolo[5,1-c][1,4]oxazin-3-yl)pyridin-2-yl)benzamide], the 50% inhibitory concentration (IC50) in assay [1] amounted to 6 nM; in assay [2], 2 nM.
On the same counts, the results for `Cn1cc2nccc(-c3c(-c4ccc(F)cn4)nn4c3COC(C)(C)C4)c2n1` [Example 138, 2-(5-Fluoropyridin-2-yl)-6,6-dimethyl-3-(2-methyl-2H-pyrazolo[4,3-b]pyridin-7-yl)-6,7-dihydro-4H-pyrazolo[5,1-c][1,4]oxazine] are 999 nM and 106 nM.
For `Fc1ccc(-c2nn3c(c2-c2ccnc4[nH]ncc24)CC[C@H]2C[C@H]23)cc1` (stereo in doubt) [Example 339, (5a*S,6a*R)-2-(4-Fluorophenyl)-3-(1H-pyrazolo[3,4-b]pyridin-4-yl)-5,5a,6,6a-tetrahydro-4H-cyclopropa[e]pyrazolo[1,5-a]pyridine] the same measures were 7 nM and 1 nM.
On the same counts, the results for `COCC1(F)CCc2c(-c3cc(C(F)F)nc4[nH]ncc34)c(-c3ccc(F)cn3)nn2C1` (single isomer, unassigned) [Example 306, (*S)-6-(Difluoromethyl)-4-[6-fluoro-2-(5-fluoro-2-pyridyl)-6-(methoxymethyl)-5,7-dihydro-4H-pyrazolo[1,5-a]pyridin-3-yl]-1H-pyrazolo[3,4-b]pyridine] are 68 nM and 8 nM.
Consider `CC1(C)Cc2c(-c3ccnc4[nH]ncc34)c(-c3ccc(F)cc3)nn2C1` [Example 231, 4-[2-(4-Fluorophenyl)-5,5-dimethyl-4,6-dihydropyrrolo[1,2-b]pyrazol-3-yl]-1H-pyrazolo[3,4-b]pyridine], for which the concentration for half-maximal inhibition (IC50) in assay [1] stood at 4 nM; in assay [2], 1 nM.
With `Cc1cc(-c2c(-c3ncc(F)cc3F)nn3c2COC(C)(C)C3)c2cn[nH]c2n1` [Example 167, 2-(3,5-Difluoropyridin-2-yl)-6,6-dimethyl-3-(6-methyl-1H-pyrazolo[3,4-b]pyridin-4-yl)-6,7-dihydro-4H-pyrazolo[5,1-c][1,4]oxazine], the half-inhibitory concentration (IC50) in assay [1] amounted to 91 nM; in assay [2], 3 nM.
For `Cc1cc(-c2c(-c3ncc(F)cc3F)nn3c2CCCC3)c2cn[nH]c2n1` [Example 37, 4-[2-(3,5-Difluoro-2-pyridyl)-4,5,6,7-tetrahydropyrazolo[1,5-a]pyridin-3-yl]-6-methyl-1H-pyrazolo[3,4-b]pyridine] the same measures were 210 nM and 11 nM.

For the origin of these results see patent US20230339970A1, “CASEIN KINASE 1 DELTA MODULATORS” (priority 2020, published 2023).
